Consider one compound from patent US9161893B2, “Use, as antidandruff agent, of (ethoxyhydroxyphenyl) alkyl ketone or ethoxyhydroxyalkylphenol compounds” (L'OREAL, priority 2011, dated 2015).

One assay relates to Malassezia globosa. The assay is described as follows: Antifungal growth inhibition on MLNA agar, scored against growth control. The class given is cell-based. The settings on record: for Inhibition score Malassezia globosa: MLNA agar, at least 5 days at 30° C. As to the method:
(§1) A solution containing 2% by weight of test compound is prepared in “modified Leeming and Notman liquid (MLNA)” in the following way: 0.2048 g of test compound is weighed out into qs for 10 ml of modified Leeming and Notman liquid; solubilization is carried out by heating and the use of ultrasound. The solutions of test product are twice as concentrated as the final test concentration, in order to take into account the dilution when they are brought into contact with the Malassezia suspension. One of the previously prepared solutions at 2% is diluted to ½ in modified Leeming and Notman liquid, so as to finally obtain a test concentration of 0.5%; the other solution is used as it is (at 2%) so as to finally obtain a test concentration of 1%. The Malassezia strains are brought into contact according to the table below: [table] The mixture is stirred and deposited at the surface of the MLNA agar. It is spread, with a sterile scraper, over the entire surface before recovering the excess. It is left to incubate for at least 5 days at 30° C. The antifungal effect of the compound is evaluated via the absence of growth of the Malassezia strain tested. This inhibition is evaluated relative to the growth control. The inhibitions are scored from 0 to 3 via assessment of the density of the culture at the surface of the agar, in comparison with the growth control, in the following way: [table]

For a further assay, the system named is Malassezia restricta. Described as above. The class given is cell-based. The settings on record: for Inhibition score Malassezia restricta: MLNA agar, at least 5 days at 30° C. As to the method: as §1

Regarding `CCOc1cc(CCC(C)=O)ccc1O` [Compound tested], the “Growth inhibition of Malassezia globosa (in words)” value with Malassezia globosa (compound at 0.5%) was “weakly”; in the assay on Malassezia globosa (compound at 1%) it was “completely inhibits the growth”. Also, the results for the “Inhibition score Malassezia globosa” value in the assay with Malassezia globosa (test concentration 0.5%) and in the assay with Malassezia globosa (test concentration 1%) were 1 (25% Growth < in the control dish) and 3 (100% No growth), respectively. The “Growth inhibition of Malassezia restricta (in words)” value was “very effective” with Malassezia restricta (compound at 0.5%) and “completely inhibits the growth” in the assay on Malassezia restricta (compound at 1%). Moreover, the “Inhibition score Malassezia restricta” value in the assay on Malassezia restricta (test concentration 0.5%) and in the assay with Malassezia restricta (test concentration 1%) was 3 (100% No growth) in each case.
